For 76 compounds, IC50 results are on record in PubChem BioAssay AID1224920 (Broad Institute, 2016).

Where “and” joins values, the source holds several entries; their conditions need not be identical. Equal values may be shown once. Calls of active or inactive are those of the source.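 The calls were made as follows: active = IC50 no higher than ten times the top tested dose; inconclusive = flat fit with 30 to 70% inhibition, or poor fit; inactive = IC50 above ten times the top dose.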

This assay deals with Clostridium difficile clinical isolate growth, OD600, 24 h. Briefly: growth modulation of Clostridium difficile isolate – OD600, 9-point, retest, dose response (AID 1224920).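 Also: inhibitors lower culture turbidity so OD600 falls.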

For the compound `COc1cccc(S(=O)(=O)N2C[C@@H]3N[C@H](C2)C3c2ccc(-c3ccccc3F)cc2)c1` (stereo partly specified), the IC50 is 26 µM.

On to `O=S(=O)(Cc1ccccc1)N1CCCCN2[C@H](CO)[C@@H](c3ccc(C#Cc4ccccc4)cc3)[C@H]2C1`, for which the IC50 was > 240 µM (inactive).

On to `O=C(C[C@@H]1CC[C@H]2[C@@H](COC[C@@H](O)CN2C(=O)Nc2ccc(C(F)(F)F)cc2)O1)NCC1CCCCC1`, for which the IC50 is 7.5 µM.

As to `COc1ccc(-c2ccc(C3[C@@H]4CN(S(=O)(=O)c5ccccc5C)C[C@H]3N4)cc2)cc1` (stereo partly specified), the IC50 is 21.9 µM.

As to `O=C(C[C@H]1CC[C@@H]2[C@H](COC[C@H](O)CN2C(=O)Nc2ccc(Cl)c(Cl)c2)O1)NC1CCC1`, the IC50 is 8.25 µM.

Take `COc1ccccc1CN1CC[C@@H]2[C@H]1c1cc(C#Cc3ccccc3)ccc1N[C@@H]2CO`: the IC50 was 26.2 µM.

In the case of `Cc1ccc(-c2ccc([C@@H]3[C@H](CO)N4CCCCN(C(=O)Nc5ccccc5)C[C@@H]34)cc2)cc1`, the IC50 is 20.2 µM.

Regarding `Cc1ccc(-c2ccc(C3[C@@H]4CN(C(=O)Nc5ccc(C(F)(F)F)cc5)C[C@H]3N4)cc2)cc1` (stereo partly specified), the IC50 is 4.49 µM and 2.49 µM.

With `COc1cccc(S(=O)(=O)N2C[C@@H]3N[C@H](C2)C3c2ccc(-c3cccc(C)c3)cc2)c1` (stereo partly specified), the IC50 is 8.9 µM.

For `O=C(c1ccc(F)cc1)N1CC(=O)N2[C@H](CO)[C@H](c3ccc(C#CCC4CCCC4)cc3)[C@H]2C1`, the IC50 was 81.6 µM.

As to `Fc1ccc(CN2[C@@H]3CNC[C@H]2C3c2ccc(-c3ccccc3)cc2)cc1` (stereo partly specified), the IC50 is 28.6 µM.

As to `O=C(c1cccc(F)c1)N1CCCCN2[C@H](CO)[C@H](c3ccc(/C=C/c4ccccc4)cc3)[C@H]2C1`, the IC50 is 140 µM.

In the case of `O=C(C[C@@H]1CC[C@H]2[C@@H](COC[C@@H](O)CN2C(=O)Nc2cc(Cl)cc(Cl)c2)O1)N1CCOCC1`, the IC50 was 17.3 µM.

For `C(=C\c1ccc(C2[C@@H]3CN(Cc4cccnc4)C[C@H]2N3)cc1)/c1ccccc1` (stereo partly specified), the IC50 was 52.1 µM and 56.8 µM.

`O=C(C1CC1)N1C[C@@H]2N[C@H](C1)C2c1ccc(/C=C/c2ccccc2)cc1` (stereo partly specified): the IC50 was 70.3 µM.

`OC[C@@H]1[C@H](c2ccc(/C=C/c3ccccc3)cc2)[C@H]2CN(CCC(F)(F)F)CCCCN12`: the IC50 was 28.7 µM.

As to `OC[C@@H]1Nc2ccc(-c3ccc(F)cc3)cc2[C@@H]2[C@H]1CCN2Cc1ccc(F)cc1`, the IC50 was 82.4 µM.

Take `O=C(Nc1cccc(F)c1)N1CCCCN2[C@@H](CO)[C@@H](c3ccc(-c4ccccc4F)cc3)[C@@H]2C1`: the IC50 is 13.1 µM.

As to `COc1cccc(-c2ccc(C3[C@@H]4CN(Cc5ccccn5)C[C@H]3N4)cc2)c1` (stereo partly specified), the IC50 is 91.5 µM.

`O=C(Nc1cccc(F)c1)N1CCCCN2[C@@H](CO)[C@H](c3ccc(-c4ccccc4F)cc3)[C@@H]2C1`: the IC50 is 33.6 µM.

As for `OC[C@H]1[C@@H](c2ccc(C#CC3CCCC3)cc2)[C@H]2CN(CCC(F)(F)F)CCCCN21`, the IC50 was 9.49 µM.

Turning to `COc1cc(CN2C[C@@H]3N[C@H](C2)C3c2ccc(-c3ccccc3C)cc2)cc(OC)c1` (stereo partly specified), the IC50 was 18.8 µM and 13.7 µM.

For the compound `O=C(Nc1ccc2c(c1)OCO2)N1C[C@@H]2N[C@H](C1)C2c1ccc(C=Cc2ccccc2)cc1` (stereo partly specified), the IC50 was 28.3 µM.

Regarding `COc1ccc(C#Cc2ccc([C@H]3[C@@H](CO)N4CCCCN(Cc5ccccc5F)C[C@H]34)cc2)cc1`, the IC50 was 4.95 µM.

Turning to `Cc1ccc(S(=O)(=O)N2[C@@H]3CNC[C@H]2C3c2ccc(-c3ccccc3C)cc2)cc1` (stereo partly specified), the IC50 is 30.6 µM.

Regarding `Cc1ccccc1-c1ccc(C2[C@H]3CNC[C@@H]2N3Cc2ccc3c(c2)OCO3)cc1` (stereo partly specified), the IC50 was 27.7 µM.

For the compound `O=C(Nc1cccc(Cl)c1)N1[C@@H]2CNC[C@H]1C2c1ccc(-c2ccccc2)cc1` (stereo partly specified), the IC50 was 44.8 µM and 74.3 µM.

Turning to `O=C(Nc1ccc(C(F)(F)F)cc1)N1[C@@H]2CNC[C@H]1C2c1ccc(-c2ccccc2F)cc1` (stereo partly specified), the IC50 is 10.3 µM and 83.8 µM.

In the case of `O=C(Nc1ccc(C(F)(F)F)cc1)N1[C@@H]2CNC[C@H]1C2c1ccc(/C=C/c2ccccc2)cc1` (stereo partly specified), the IC50 is 19.5 µM and 4.14 µM.

Take `COc1ccccc1NC(=O)N1CCCCN2[C@@H](CO)[C@@H](c3ccc(-c4cccc(C)c4)cc3)[C@@H]2C1`: the IC50 is 23.5 µM.

For `CCCNC(=O)C[C@@H]1CC[C@H]2[C@@H](COC[C@@H](O)CN2C(=O)Nc2ccc(Cl)c(Cl)c2)O1`, the IC50 was 8.45 µM.

Regarding `Cc1cccc(-c2ccc(C3[C@@H]4CN(Cc5ccccc5F)C[C@H]3N4)cc2)c1` (stereo partly specified), the IC50 was 6.22 µM.

As for `O=C(Nc1ccc(C(F)(F)F)cc1)N1C[C@@H]2N[C@H](C1)C2c1ccc(-c2cccnc2)cc1` (stereo partly specified), the IC50 was 15.2 µM.

`Fc1cccc(-c2ccc(C3[C@H]4CNC[C@@H]3N4Cc3ccccc3F)cc2)c1` (stereo partly specified): the IC50 was 60.5 µM.

As for `Cc1ccc(-c2ccc([C@@H]3[C@H](CO)N4CCCCN(C(=O)c5ccc(F)cc5)C[C@@H]34)cc2)cc1`, the IC50 is 24.3 µM.

Regarding `O=C(C[C@@H]1CC[C@@H]2[C@H](COC[C@H](O)CN2C(=O)Nc2cc(Cl)cc(Cl)c2)O1)N1CCOCC1`, the IC50 is 20.4 µM.

As to `O=C(c1ccc(F)cc1)N1CC(=O)N2[C@@H](CO)[C@H](c3ccc(C#CCC4CCCC4)cc3)[C@@H]2C1`, the 50% inhibitory concentration (IC50) was 15.7 µM.

Take `OC[C@H]1[C@H](c2ccc(C#CC3CCCC3)cc2)[C@H]2CN(CCC(F)(F)F)CCCCN21`: the IC50 was 16.8 µM.

For `COc1ccc(C#Cc2ccc([C@@H]3[C@@H](CO)N4CCCCN(Cc5ccccc5F)C[C@@H]34)cc2)cc1`, the IC50 was 25.4 µM.

For the compound `O=C(Nc1ccc(F)cc1)N1C[C@@H]2N[C@H](C1)C2c1ccc(-c2ccccc2F)cc1` (stereo partly specified), the concentration for half-maximal inhibition (IC50) is 36.7 µM and 57.5 µM.

As for `COc1cc(CN2C[C@@H]3N[C@H](C2)C3c2ccc(/C=C/c3ccccc3)cc2)cc(OC)c1` (stereo partly specified), the IC50 is 9.5 µM.

On to `O=C(C[C@H]1CC[C@@H]2[C@H](COC[C@H](O)CN2C(=O)Nc2ccc(C(F)(F)F)cc2)O1)NCC1CCCCC1`, for which the IC50 was 6.15 µM.

For `COc1ccccc1S(=O)(=O)N1[C@@H]2CNC[C@H]1C2c1ccc(/C=C/c2ccccc2)cc1` (stereo partly specified), the IC50 is 63.2 µM.

For the compound `O=C(Nc1ccc(F)cc1)N1CCCCN2[C@@H](CO)[C@@H](c3ccc(-c4ccccc4F)cc3)[C@@H]2C1`, the IC50 was 35 µM.

For the compound `Cc1cccc(S(=O)(=O)N2C[C@@H]3N[C@H](C2)C3c2ccc(-c3ccccc3C)cc2)c1` (stereo partly specified), the IC50 was 12.5 µM.

For `O=C(NC[C@H]1N[C@H](CO)[C@@H]1c1ccc(C2=CCCCC2)cc1)c1ccccc1`, the IC50 is 58.2 µM.

With `O=S(=O)(c1ccccc1)N1C[C@@H]2N[C@H](C1)C2c1ccc(-c2ccc(F)cc2)cc1` (stereo partly specified), the IC50 was 51.4 µM.

For `COc1cc(CN2[C@@H]3CNC[C@H]2C3c2ccc(/C=C/c3ccccc3)cc2)cc(OC)c1` (stereo partly specified), the IC50 was 12.2 µM.

Regarding `COc1ccccc1CN1CC[C@@H]2[C@H]1c1cc(C3=CCCCC3)ccc1N[C@@H]2CO`, the IC50 is 74.5 µM.

Regarding `O=C(C[C@@H]1CC[C@@H]2[C@H](COC[C@H](O)CN2C(=O)Nc2ccc(C(F)(F)F)cc2)O1)NCC1CCCCC1`, the IC50 is 7.67 µM.

Regarding `C/C=C/c1ccc(C2[C@H]3CNC[C@@H]2N3C(=O)Nc2ccc(C(F)(F)F)cc2)cc1` (stereo partly specified), the IC50 is 12 µM.

Turning to `O=C(NC[C@@H]1N[C@@H](CO)[C@H]1c1ccc(C2=CCCCC2)cc1)c1ccc(F)cc1`, the IC50 is 57.8 µM.

In the case of `O=C(C[C@@H]1CC[C@@H]2[C@H](COC[C@H](O)CN2C(=O)Nc2ccc(C(F)(F)F)cc2)O1)NC1Cc2ccccc2C1`, the IC50 is 17.5 µM.

On to `COc1cccc(-c2ccc(C3[C@@H]4CN(S(=O)(=O)c5ccccc5C)C[C@H]3N4)cc2)c1` (stereo partly specified), for which the concentration for half-maximal inhibition (IC50) was 29.1 µM.

Take `O=C(C[C@H]1CC[C@@H]2[C@H](COC[C@@H](O)CN2C(=O)Nc2ccc(Cl)c(Cl)c2)O1)NC1CCC1`: the IC50 is 27.5 µM.

`O=C(C[C@H]1CC[C@H]2[C@@H](COC[C@@H](O)CN2C(=O)Nc2ccc(Cl)c(Cl)c2)O1)NC1CCC1`: the IC50 is 19.4 µM.

As to `C[C@@H]1CN([C@@H](C)CO)C(=O)c2ccccc2-c2ccccc2CO[C@H]1CN(C)Cc1ccccc1C(F)(F)F`, the IC50 is > 270 µM (inactive).

Turning to `COc1ccc(C#Cc2ccc([C@@H]3[C@@H](CO)N4CCCCN(C(=O)Nc5cccc(F)c5)C[C@H]34)cc2)cc1`, the concentration for half-maximal inhibition (IC50) is 14.4 µM.

Regarding `C/C=C/c1ccc(C2[C@@H]3CN(Cc4cccc(F)c4)C[C@H]2N3)cc1` (stereo partly specified), the IC50 is 14.3 µM and 27.3 µM.

Consider `Cc1cccc(-c2ccc(C3[C@@H]4CN(C(=O)C5CCCC5)C[C@H]3N4)cc2)c1` (stereo partly specified), for which the IC50 was 62.9 µM.

Take `Cc1ccccc1-c1ccc(C2[C@@H]3CN(Cc4ccc5c(c4)OCO5)C[C@H]2N3)cc1` (stereo partly specified): the IC50 was 5.63 µM and 15.6 µM.

`COc1cc(CN2[C@@H]3CNC[C@H]2C3c2ccc(-c3ccccc3C)cc2)cc(OC)c1` (stereo partly specified): the IC50 was 18.8 µM.

Consider `C/C=C/c1ccc(C2[C@H]3CNC[C@@H]2N3Cc2cc(-c3ccccc3)on2)cc1` (stereo partly specified), for which the IC50 was 32.7 µM.

On to `O=C(Nc1ccc(F)cc1)N1CCCCN2[C@H](CO)[C@H](c3ccc(-c4cccc(F)c4)cc3)[C@H]2C1`, for which the IC50 was 70.3 µM.

Consider `Cc1ccc(-c2ccc([C@H]3[C@@H](CO)N4CCCCN(S(=O)(=O)c5cccc(C)c5)C[C@H]34)cc2)cc1`, for which the IC50 is 13.7 µM.

Regarding `Cc1ccccc1-c1ccc(C2[C@@H]3CN(C(=O)NC4CCCCC4)C[C@H]2N3)cc1` (stereo partly specified), the IC50 is 57.7 µM.

Consider `Cc1ccc(-c2ccc(C3[C@@H]4CN(Cc5cccc(F)c5)C[C@H]3N4)cc2)cc1` (stereo partly specified), for which the IC50 is 2.8 µM and 12.6 µM.

Take `O=C(Nc1ccccc1)N1C[C@@H]2N[C@H](C1)C2c1ccc(-c2ccccc2F)cc1` (stereo partly specified): the IC50 was 52.3 µM.

Take `O=C(Nc1ccccc1F)N1CCCCN2[C@H](CO)[C@H](c3ccc(/C=C/c4ccccc4)cc3)[C@H]2C1`: the IC50 was 10.4 µM.

With `COc1ccc(NC(=O)N2CCCCN3[C@H](CO)[C@@H](c4ccc(C#Cc5ccccc5)cc4)[C@H]3C2)cc1`, the half-maximal inhibitory concentration (IC50) is 25.7 µM.

On to `OC[C@@H]1Nc2ccc(C#Cc3cccc(F)c3)cc2[C@@H]2NCC[C@H]12`, for which the IC50 is 42.8 µM.

With `Fc1cccc(CN2C[C@@H]3N[C@H](C2)C3c2ccc(-c3ccccc3)cc2)c1` (stereo partly specified), the half-maximal inhibitory concentration (IC50) is 8.38 µM and 10.4 µM.

For `Cc1ccc(-c2ccc([C@@H]3[C@@H](CO)N4CCCCN(C(=O)c5ccc(F)cc5)C[C@H]34)cc2)cc1`, the IC50 is 34.4 µM.

In the case of `C(=C\c1ccc(C2[C@@H]3CN(Cc4cocn4)C[C@H]2N3)cc1)/c1ccccc1` (stereo partly specified), the IC50 is 11 µM.

For the compound `COc1ccc(-c2ccc(C3[C@@H]4CN(Cc5cccc(OC)c5)C[C@H]3N4)cc2)cc1` (stereo partly specified), the IC50 is 38.5 µM and 16.2 µM.

Take `O=C(C[C@H]1CC[C@H]2[C@@H](COC[C@@H](O)CN2C(=O)Nc2ccc(C(F)(F)F)cc2)O1)NC1Cc2ccccc2C1`: the IC50 is 16.6 µM.

As a reminder, the IC50 is the concentration that inhibits the measured activity by half.
